In patent US20160296506A1, “Methods and Compositions for Treating HIV Infection” (priority 2012, published 2016):

Tests used:
THP-1 cells = experiment: dNTP levels in THP-1 cells (HPLC-MS); assay type: cell-based; settings: statement
Procedure: Briefly, Undifferentiated THP-1 cells (5×10̂6 cells/well) were treated with various inhibitors (10 μM EVJ, 10 μM JWJ, 100 nM rapamycin, 250 nM torin1, or 1 μM Go6976) for 16 h before harvest and extraction for HPLC-MS analysis of dNTP levels. Data represents analysis of triplicate samples.
Briefly, THP-1 cells (2.5×10^5 cells in 0.5 mL of c-RPMI (5×10^5/mL)/well) were seeded into 24-well plates and differentiated with 0.1 μM PMA for 24 h. Cells were then pretreated for 4 h with inhibitors (10 μM EVJ, 10 μM JWJ, 100 nM rapamycin, 250 nM torin1, or 10 μM concentration of two AKT inhibitors for comparison). Cells were then infected with HIV-1-GFP in the continued presence of inhibitors. Levels of infection were determined by flow cytometry (BD Biosciences FACSCalibur) 72 h post-infection. […] This difference is likely due to an increase in PLD1 activity in PMA-treated THP-1 cells.

[1] = tested on: carbamoyl-phosphate synthetase 2, aspartate transcarbamylase, and dihydroorotase (CAD); experiment: CAD activity (phosphorylation at S1859) in IL-2/PHA-stimulated CD4 T cells; assay type: cell-based
Procedure: (§1) PLD inhibitors modulate intracellular deoxyribonucleotides levels. […] CD4 T-cells experiments were performed with ani-CD3/CD28-currently completing experiments with IL-2/phytohaemagglutinin (PHA)-stimulated CD4 T cells.

Plasma protein binding = assay type: in vitro ADME
IV pharmacokinetics = assay type: in vivo, mice; settings: dose 1 mg/kg; for half-life / Vd: mouse, plasma; for Vd: read-out: Vdss
[2] = PO plasma and brain levels; assay type: in vivo, mice; settings: dose 10 mg/kg
Procedure: The pharmacokinetic behavior of a representative disclosed PLD inhibitor of the present invention was assessed following […]. Briefly, mice were administered a single dose of a representative PLD inhibitor, either VUO364739 or VU359595 (10 mg/kg) by either intravenous injection or by oral administration. Plasma samples and tissue samples (brain) were isolated at various time points following euthanizing animal. The samples were flash frozen and stored at −80° C. Analysis was carried out by LC-MS/MS following extraction.

HIV-1 [3] = experiment: HIV-1 infection in PMA-stimulated THP-1 cells (flow cytometry); assay type: cell-based; settings: 10 μM, 4 h pretreatment, HIV-1-GFP, 72 h post-infection, FIG. 10
HIV-1 [4] = experiment: HIV-1 infection of U87.CD4.CXCR4 cells; assay type: cell-based; settings: data not shown
HIV-1 [5] = experiment: HIV-1 replication in activated primary CD4+ T cells; assay type: cell-based, human; settings: 10 μM, PHA/IL2 activated after EVJ treatment, FIG. 14
primary T-cells = experiment: dNTP increases in stimulated primary CD4 T-cells; assay type: cell-based, human; settings: FIG. 14
Procedure: as §1

U87MG cells = experiment: SILAC proteomic analysis on U87MG cells; assay type: cell-based; settings: EVJ on U87MG cells, FIG. 12
Procedure: A SILAC proteomic analysis was conducted using the PLD1-preferring inhibitor EVJ on U87MG cells.

CAD = experiment: dNTP levels with CAD overexpression; assay type: cell-based; settings: FIG. 13

| Compound | Deoxyribonucleotide (dNTP) levels (THP-1 cells) | activity of CAD, phosphorylation at activation residue S1859 [1] | Plasma Protein Binding (% bound) (Plasma protein binding) | CI (IV pharmacokinetics) | half-life (IV pharmacokinetics) | Vd (IV pharmacokinetics) | Plasma [2] | HIV-1 replication in THP-1 cells, undifferentiated vs PMA-differentiated (HIV-1 [3]) | HIV-1 infection of U87.CD4.CXCR4 cells (HIV-1 [4]) | dNTP levels upon CAD over expression (CAD) | also measured |
| --- | --- | --- | --- | --- | --- | --- | --- | --- | --- | --- | --- |
| CCC(=O)N1CCN(c2ccc(-n3c(=O)ccc4cnc5ccc(-c6cnc7ccccc7c6)cc5c43)cc2C(F)(F)F)CC1 [Torin1] | potently reduced | suppress activity |  |  |  |  |  |  |  |  |  |
| O=C(NCCN1CCC2(CC1)C(=O)NCN2c1cccc(F)c1)c1ccc2ccccc2c1 [No. 1, N-(2-(1-(3-fluorophenyl)-4-oxo-1,3,8-triazaspiro [4.5]decan-8-yl)ethyl)-2-naphthamide] |  |  | 98.1 % bound | 60.7 mL/min/kg | 0.78 h | 4.7 L/kg | 29 ng/kg | inhibits HIV-1 replication under both conditions | inhibit HIV-1 infection |  | Brain (ng/kg) [2]: BLQ; Brain: Plasma [2]: BLQ |
| CNC(=O)c1cccc(-c2ccc3c(N4CCOC[C@@H]4C)nc(N4CCOC[C@@H]4C)nc3n2)c1 [AZD2014] |  | suppress activity |  |  |  |  |  |  |  |  |  |
| C[C@@H](CN1CCC(n2c(=O)[nH]c3cc(Br)ccc32)CC1)NC(=O)[C@@H]1C[C@@H]1c1ccccc1 [No. 2, (1R,2S)-N-((S)-1-(4-(5-bromo-2-oxo-2,3-dihydro-1H-benzo[d]imidazol-1-yl)piperidin-1-yl)propan-2-yl)-2-phenylcyclopropane carboxamide] |  | suppress activity | 97.9 % bound | 61.5 mL/min/kg | 1.52 h | 8.1 L/kg | 39.9 ng/kg | more robust effect on HIV-1 replication in PMA-differentiated THP-1 cells | inhibit HIV-1 infection | partially rescues the dNTP biosynthetic phenotype | Brain [2]: 29 ng/kg; Kp ([2]; mouse, brain/plasma): 0.73; HIV-1 replication in activated primary CD4+ T cells (HIV-1 [5]): inhibits HIV-1 replication; dNTP increases in CD4-receptor stimulated primary T-cells from human donors (primary T-cells): blunt dNTP increases; signaling pathway changed (network analysis) (U87MG cells): mTORC1 signaling is the predominant signaling pathway changed |
| NC(=O)NO [Hydroxyurea] |  | comparative modest effects |  |  |  |  |  |  |  |  |  |
| NC1(c2ccc(-c3nc4ccn5c(=O)[nH]nc5c4cc3-c3ccccc3)cc2)CCC1 [MK2206, reference compound] | potently reduced |  |  |  |  |  |  |  |  | continues to block dNTP levels |  |
